Assays:
Format in all cases: cell-based, human
WNT3 = test: qRT-PCR of WNT3 expression in RL95-2 cells; details: RL95-2, qRT-PCR normalized to 18S
Description: Using RL95-2 endometrial cancer cells, we overexpressed PME-1 (FIG. 21A) or depleted PME-1 with shRNA targeted to PME-1 (SEQ ID NO: 2) (FIG. 21B) and confirmed that PME-1 was appropriately expressed.
Total RNA was extracted with Qiagen RNAEasy kit from RL95-2 cells. cDNA was synthesized using 500 ng-1 μg of RNA and SuperScript VILO c-DNA mix (Life Technologies). Taqman probes and PCR-mix were purchased from Life Technologies. All samples were run in triplicates. Results are representative of three independent experiments in which genes of interest were normalized to the house-keeping gene, 18S or GAPDH, where fold-change was calculated using the ddCt method.

RL95-2 cells [1] = test: Colony forming / invasive growth assay in Matrigel
Description: To determine if PME-1 contributes to the more invasive and metastatic phenotypes, we performed a colony forming assay in matrigel.
The 3D On Top Matrigel Assay was completed in 24 well dishes. Briefly, the bottoms of 24 well dishes were coated with 50 μl BD Matrigel Basement Matrix Phenol Red Free (BD Biosciences cat. #356237) and allowed to solidify at 37° C. 10^5 cells were suspended in 250 μl chilled medium containing either 10 ng/ml of TGF-b or vehicle and allowed to settle at 37° C. for 30 minutes. Chilled medium containing 10% of Matrigel was added by pipetting gently down the sidewall of the well and incubated at 37° C. for ten days changing top medium every second day. Colony counts were performed on the tenth day; averages were taken from three fields of view using a 10× objective. Experiment was repeated three times.

RL95-2 cells [2] = test: Foci formation assay, RL95-2 cells; details: RL95-2 cells expressing shRNA, compared to control cells
Description: A foci forming assay was used to monitor cell growth. Equal amounts of tumor cells were plated and they were allowed to grow for a determined period of time (see Materials and Methods section for details). The foci that were formed were then stained with the crystal violet dye. Cells were washed 3 times with PBS prior to visualization. Numbers of foci were counted and results were averaged among different experiments.
To determine if the loss of active PME-1 accounted for the observed decrease in foci formation, we first treated RL95-2 cells with siRNA against the 3′-UTR of PPME1 (SEQ ID NO: 5 and SEQ ID NO: 6) to decrease endogenous levels of PME-1. […] The S156A PME-1 mutant is not capable of de methylaing its target, PP2A.
1,000 cells were plated in a six well tissue culture dish in selection media (to include 5 μg/ml puromycin) (InvivoGen). Cells were allowed to adhere and grow in a 5% CO2, 37° C. incubator for 10 to 14 days. Media was replaced every fourth day. Cells were stained with 1% crystal violet (Sigma Aldrich) for five minutes and rinsed with PBS. Colonies were counted and data is presented as the percentage of change compared to the control. All Experiments were repeated at least three times.

DcR2 = test: Senescence assay: Western blot for DcR2 in RL95-2 cells; details: RL95-2 cell lysates
Description: We next analyzed cell lysates taken from RL95-2 cells that expressed either empty vector (Control), overexpressed PME-1 (+PME-1) or expressed shRNA against PME-1 (−PME-1) for DcR2 protein.
15 μg of protein was used for western analysis. PME-1 antibody (Santa Cruz) and COXIV (Cell Signaling Technologies) were used for detection of proteins and the blots were developed using chemiluminescence (Pierce ECL Western Blotting Substrate—Thermo Scientific) on the GE ImageQuant LAS 4000. For analysis of Akt, ERK, and β-catenin signaling in tissue culture, western analyses were completed as follows. RL95-2 cells stably infected with lentivirus expressing constructs were selected with puromycin (Invivogen). The cells were incubated with either 50 μM Akt inhibitor (LY 294002, Cell Signaling Technologies) or 40 μM ERK inhibitor (V0126, Cell Signaling Technologies) for 1-2 hours at 37° C. 1.5× Laemelli buffer (0.5 M Tris pH6.8, […], 10% sodium dodecyl sulfate, 100 mM EDTA) was used to prepare cell lysates. 20 μg of protein was used for western analysis. Primary antibodies used were: P-Akt (Ser473), P-Akt (Thr308), pan-Akt, P-ERK (Thr202/204), total ERK (Cell Signaling Technologies), PME-1 (Santa Cruz), phospho-β-catenin (Ser45, Cell Signaling Technologies), phospho-β-catenin (Ser33/37/Thr41, Cell Signaling Technologies), β-catenin (Abcam), DcR2 (Abcam), and GAPDH (Abcam). […]

β-catenin = test: Western analysis of β-catenin in RL95-2 cells
From the text: We performed Western blot analysis in RL95-2 cells that were expressing empty vector (Control), over-expressing PME-1 (+PME-1) or expressing shRNA against PME-1 (−PME-1) (SEQ ID NO: 2) to examine the protein stability of β-catenin (FIG. 19A). We observed a decrease in total β-catenin protein in cells that were over-expressing PME-1. This observation is correlated with the predicted ubiquitylation of β-catenin and its degradation.
In another series of study, we performed a similar assay in which cells were treated with 10 μM MG-132 prior to protein extraction. MG-132 is a proteasome inhibitor and therefore allows for the accumulation of phosphorylated β-catenin, which is normally quickly degraded, to be detected by western analysis.
15 μg of protein was used for western analysis. PME-1 antibody (Santa Cruz) and COXIV (Cell Signaling Technologies) were used for detection of proteins and the blots were developed using chemiluminescence (Pierce ECL Western Blotting Substrate—Thermo Scientific) on the GE ImageQuant LAS 4000. For analysis of Akt, ERK, and β-catenin signaling in tissue culture, western analyses were completed as follows. RL95-2 cells stably infected with lentivirus expressing constructs were selected with puromycin (Invivogen). […]

PP2A = PP2A phosphatase assay on RL95-2 whole cell lysates; details: RL95-2 cells, vs control (non-targeting)
From the text: Because PME-1 is a known inhibitor of PP2A, we confirmed in this study that depletion of PME-1 by siRNA led to an increase in PP2A activity in cells. To do so, we treated RL95-2 cells with either non-targeting siRNA (Control) or siRNA targeted against PPME1 (e.g., SEQ ID NO: 5 and SEQ ID NO: 6). PP2A activity was monitored using a phosphatase assay (R&D Systems Duo IC Set phosphatase assay kit). In the phosphatase assay, we used […] of whole cell extract and followed the manufacturer's recommendations.
Whole cell lysates were used with the DuoSet IC PP2A Phosphatase Assay Kit (R&D Systems). Procedure was carried out as per kit instructions with 500 μg protein and the absorbance was measured at 620 nm. The assay was repeated twice with similar results.

shRNA (SEQ ID NO: 2): lentiviral shRNA against PPME1, target sequence SEQ ID NO: 2 GCAGCGATTATTAGTAGAGTT, bp 289-309; hairpin SEQ ID NO: 8 (CCGGGCAGCGATTATTAGTAGAGTTCTCGAGAACTCTACTAATAATCGCTGCTTTTT; listed as Homo sapiens)
WNT3 expression (WNT3): significantly decreased
colony number and size in Matrigel (RL95-2 cells [1]; RL95-2, −TGF-β, compared to control cells): fewer and smaller colonies
decrease in colony formation (RL95-2 cells [1]; RL95-2 in Matrigel, 10 days, vs control cells): 50%
decrease in foci (RL95-2 cells [2]): 75%
senescent marker protein DcR2 (Western) (DcR2): increase in the senescent marker protein, DcR2
total β-catenin protein (Western) (β-catenin; RL95-2, absence of MG-132): stabilization of total β-catenin
phosphorylated β-catenin (Western) (β-catenin; RL95-2, treated with 10 μM MG-132, compared to control cells): did not lead to an increase in phosphorylated β-catenin
increase in PP2A phosphatase activity (PP2A): 30 fold
